In patent US11384075B2, “Quinolinone compounds” (Janssen Pharmaceutica NV, priority 2017, dated 2022):
Blank lines part the entries; values can stand above or below the molecule they belong to.

Tests used:
[1] = target: T1, human FGFR3 wild type enzyme (cytoplasmic domain) (Homo sapiens, UniProt P22607); experiment: FGFR3 wild type mobility shift assay (enzymatic assay); assay type: biochemical; details: 75 μM ATP, 50 minutes at 30° C., Caliper EZ reader II
T1 construct: human FGFR3 wild type enzyme (cytoplasmic domain, from Carna Biosciences); purchased Carna Biosciences
T1 sequence (P22607 397-806 limits assumed): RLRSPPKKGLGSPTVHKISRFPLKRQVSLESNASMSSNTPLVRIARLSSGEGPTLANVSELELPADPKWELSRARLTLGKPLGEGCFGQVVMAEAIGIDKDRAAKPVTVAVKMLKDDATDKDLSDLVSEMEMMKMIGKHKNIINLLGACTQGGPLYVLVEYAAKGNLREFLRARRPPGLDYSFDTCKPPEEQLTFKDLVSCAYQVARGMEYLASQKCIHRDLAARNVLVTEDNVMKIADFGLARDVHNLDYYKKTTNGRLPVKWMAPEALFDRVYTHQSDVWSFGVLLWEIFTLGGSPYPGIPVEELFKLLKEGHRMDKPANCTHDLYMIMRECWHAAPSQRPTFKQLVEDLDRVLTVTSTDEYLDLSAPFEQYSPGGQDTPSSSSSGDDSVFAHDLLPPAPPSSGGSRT
How it was run: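 Cytoplasmic domain of human wild-type FGFR3 (0.04 ng/μL) with 75 μM ATP and 1 μM FL-peptide 30, pH 7.4 HEPES/MgCl2 buffer, 1% DMSO, 50 min at 30 °C, EDTA-stopped. Substrate-product conversion read by mobility shift. IC50, pIC50 and Hill slope from 10-point 4-fold dilutions starting at 10 μM.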

[2] = target: T2, human FGFR3 V555M enzyme (cytoplasmic domain carrying V555M mutation) (Homo sapiens, UniProt P22607, V555M); experiment: FGFR3 V555M mobility shift assay (enzymatic assay); assay type: biochemical; details: 30 μM ATP, 45 minutes at 30° C., Caliper EZ reader II
T2 construct: human FGFR3 V555M enzyme (cytoplasmic domain carrying V555M mutation, from Carna Biosciences); purchased Carna Biosciences
T2 sequence (P22607 397-806 V555M limits assumed): as the sequence (P22607 397-806 limits assumed) above, with V159M counted along it
How it was run: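 Cytoplasmic-domain FGFR3 V555M (0.04 ng/μL) with 30 μM ATP and 1 μM FL-peptide 30 in HEPES pH 7.4/MgCl2/Brij35/DTT, 1% DMSO, 45 min at 30 °C, EDTA-stopped. Mobility-shift read of substrate-product conversion; 10-point 4× dilution from 10 μM fitted for IC50/pIC50.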

[3] = target: T3, human FGFR3 V555L enzyme (cytoplasmic domain carrying V555L mutation) (Homo sapiens, UniProt P22607, V555L); experiment: FGFR3 V555L mobility shift assay (enzymatic assay); assay type: biochemical; details: 40 μM ATP, 50 minutes at 30° C., Caliper EZ reader II
T3 construct: human FGFR3 V555L enzyme (cytoplasmic domain carrying V555L mutation, from Carna Biosciences); purchased Carna Biosciences
T3 sequence (P22607 397-806 V555L limits assumed): as the sequence (P22607 397-806 limits assumed) above, with V159L counted along it
Procedure: FGFR3 V555L Mobility Shift Assay (Enzymatic Assay)
In a final reaction volume of 25 μL, 0.04 ng/μL human FGFR3 V555L enzyme (cytoplasmic domain carrying V555L mutation, from Carna Biosciences) was incubated with 40 μM ATP, 1 μM FL-peptide 30 substrate and 250 nL of testing compound (1% DMSO final) in assay buffer (100 mM HEPES pH 7.4, 10 mM MgCl2, 0.003% Brij35, 1 mM DTT). After incubation for 50 minutes at 30° C. the reaction was stopped with 10 μL of 0.5M EDTA pH 8.0, and then 25 μL of reaction mixture was transferred to reading plate and measured on Caliper EZ reader II. The substrate-product conversion rate was used as raw data for normalization and concentration-response curve (10 dose points with 4× serial dilution, starting with 10 μM) was plotted using Prism to calculate IC50 (M), pIC50 (−log IC50) and HillSlope value.

[4] = test system: NIH/3T3 cells transfected with the same control vector; experiment: NIH/3T3 mock cell proliferation assay (counter assay, general toxicity); assay type: cell-based; details: Mus musculus, NIH3T3, 72 h, 72-hr incubation, CellTiter Glo, starting with 30 μM; counter assay for general toxicity; read-out: NIH/3T3 MOCK CTG (IC50)
How it was run: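 Control-vector NIH/3T3 cells, 30,000/well in DMEM with 10% FBS, exposed 72 h at 37 °C to compound (9 points, 3-fold from 30 μM, 0.3% DMSO). CellTiter-Glo luminescence normalized to survival %; IC50, pIC50 and Hill slope from concentration-response fit.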

[5] = target: T4, NIH/3T3 cells overexpressing FGFR3 WT-TACC3 fusion protein (Homo sapiens, UniProt P22607); experiment: NIH/3T3 FGFR3 WT-TACC3 cell proliferation assay; assay type: cell-based; details: 72-hr incubation, CellTiter Glo, starting with 10 μM; read-out: NIH/3T3 FGFR3 WT-TACC3 CTG (IC50)
T4 construct: NIH/3T3 FGFR3 WT-TACC3 CTG (IC50); other: 72-hr incubation, CellTiter Glo, starting with 10 μM; fused on or other part: Q9Y6A5 (Transforming acidic coiled-coil-containing protein 3)
T4 sequence (P22607 whole entry, change not shown, the tested form may be a part): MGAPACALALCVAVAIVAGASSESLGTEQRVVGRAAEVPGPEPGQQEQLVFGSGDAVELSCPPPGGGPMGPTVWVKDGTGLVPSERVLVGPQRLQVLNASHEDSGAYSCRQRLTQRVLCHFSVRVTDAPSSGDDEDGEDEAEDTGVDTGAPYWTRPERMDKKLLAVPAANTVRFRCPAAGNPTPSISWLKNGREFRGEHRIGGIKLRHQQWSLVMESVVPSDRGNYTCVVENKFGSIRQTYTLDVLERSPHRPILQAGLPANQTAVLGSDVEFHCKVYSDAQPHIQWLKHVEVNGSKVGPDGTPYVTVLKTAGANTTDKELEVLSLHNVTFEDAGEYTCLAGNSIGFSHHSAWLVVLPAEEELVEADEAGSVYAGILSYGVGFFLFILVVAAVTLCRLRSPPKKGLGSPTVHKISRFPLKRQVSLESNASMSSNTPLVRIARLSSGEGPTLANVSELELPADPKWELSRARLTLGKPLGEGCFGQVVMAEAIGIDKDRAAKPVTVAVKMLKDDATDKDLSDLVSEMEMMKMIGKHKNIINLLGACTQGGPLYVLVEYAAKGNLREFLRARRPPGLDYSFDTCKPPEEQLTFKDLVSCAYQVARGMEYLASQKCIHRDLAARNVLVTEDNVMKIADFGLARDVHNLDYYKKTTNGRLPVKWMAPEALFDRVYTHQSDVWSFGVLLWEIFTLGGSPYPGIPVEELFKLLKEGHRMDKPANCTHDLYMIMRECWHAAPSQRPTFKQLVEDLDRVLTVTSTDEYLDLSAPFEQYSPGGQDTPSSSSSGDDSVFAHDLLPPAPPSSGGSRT
How it was run: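 Cells seeded overnight, then exposed 72 h at 37 °C to compound in 9-point 4-fold dilutions from 10 μM (0.1% DMSO final). Viability read by CellTiter-Glo luminescence, normalized to survival %; IC50, pIC50 and Hill slope from concentration-response fit.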

[6] = target: T5, NIH/3T3 cells overexpressing FGFR3 V555M-TACC3 fusion protein (Homo sapiens, UniProt P22607, V555M, cells depend on it); experiment: NIH/3T3 FGFR3 V555M-TACC3 cell proliferation assay; assay type: cell-based; details: 72-hr incubation, CellTiter Glo, starting with 10 μM; read-out: NIH/3T3 FGFR3 V555M-TACC3 CTG (IC50)
T5 construct: NIH/3T3 FGFR3 V555M-TACC3 CTG (IC50); other: 72-hr incubation, CellTiter Glo, starting with 10 μM; fused on or other part: Q9Y6A5 (Transforming acidic coiled-coil-containing protein 3)
T5 sequence (P22607 whole entry V555M, the tested form may be a part): as the sequence (P22607 whole entry, change not shown, the tested form may be a part) above, with V555M counted along it
How it was run: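 NIH/3T3 cells overexpressing FGFR3 V555M-TACC3 fusion, 30,000/well in DMEM/10% FBS, treated for 72 h at 37 °C with 9 doses (4× dilutions from 10 μM top, 0.1% DMSO). CellTiter-Glo luminescence normalised to % survival; IC50, pIC50 and Hill slope from concentration-response fits.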

SMILES: CCC(Nc1c(-c2nc3ccc(N4CCOCC4)cc3[nH]2)c(=O)[nH]c2ccccc12)c1ncccn1 (single isomer, unassigned) [Compound 30a, (S*)-3-(6-morpholino-1H-benzo[d]imidazol-2-yl)-4-((1-(pyrimidin-2-yl)propyl)amino)quinolin-2(1H)-one]
IC50 [1]: 0.281 nM
IC50 [2]: 0.177 nM
IC50 [3]: 0.617 nM
IC50 [4]: 2910 nM
GI50 [5]: 7.19 nM
GI50 [6]: 5.34 nM

SMILES: CC(C)C(Nc1c(-c2nc3ccc(N4CCOCC4)cc3[nH]2)c(=O)[nH]c2ccccc12)c1ncccn1 (single isomer, unassigned) [Compound 32a, (S*)-4-((2-methyl-1-(pyrimidin-2-yl)propyl)amino)-3-(6-morpholino-1H-benzo[d]imidazol-2-yl)quinolin-2(1H)-one]
IC50 [1]: 0.368 nM
IC50 [2]: 0.171 nM
IC50 [3]: 0.364 nM
IC50 [4]: 2610 nM
GI50 [5]: 16.5 nM
GI50 [6]: 5.75 nM

SMILES: O=c1[nH]c2ccccc2c(NC(c2ncccn2)C2CC2)c1-c1nc2ccc(N3CCOCC3)cc2[nH]1 (single isomer, unassigned) [Compound 33a, (S*)-4-((cyclopropyl(pyrimidin-2-yl)methyl)amino)-3-(6-morpholino-1H-benzo[d]imidazol-2-yl)quinolin-2(1H)-one]
IC50 [1]: 0.595 nM
IC50 [2]: 0.237 nM
IC50 [3]: 0.63 nM
IC50 [4]: 1080 nM
GI50 [5]: 9.24 nM
GI50 [6]: 6.41 nM

More lines, main results first:

IC50 [1]: 0.709 nM
IC50 [2]: 1.65 nM
IC50 [3]: 1.39 nM
GI50 [6]: 51.4 nM
SMILES: C[C@H](Nc1c(-c2nc3ccc(N4CCN(C)CC4)cc3[nH]2)c(=O)[nH]c2cc(F)ccc12)c1ccccn1 [Compound 63, (S)-7-Fluoro-3-(6-(4-methylpiperazin-1-yl)-1H-benzo[d]imidazol-2-yl)-4-((1-(pyridin-2-yl)ethyl)amino)quinolin-2(1H)-one]
IC50 [4]: 637 nM

IC50 [1]: 0.377 nM
IC50 [2]: 0.193 nM
IC50 [3]: 0.246 nM
GI50 [5]: 5.93 nM
GI50 [6]: 8.19 nM
SMILES: C[C@H](Nc1c(-c2nc3ccc(N4CCN(C)CC4)cc3[nH]2)c(=O)[nH]c2ccccc12)c1ccccn1 [Compound 65, (S)-3-(6-(4-methylpiperazin-1-yl)-1H-benzo[d]imidazol-2-yl)-4-((1-(pyridin-2-yl)-ethyl)amino)quinolin-2(1H)-one]
IC50 [4]: 165 nM
